# How the values were obtained:
# [1] = test system: muscle atrophy induced mice; assay: Muscle fiber size and cross-sectional area of gastrocnemius (H&E, image J) in muscle atrophy induced mice; assay type: in vivo, C57BL/6 mice; settings: 14 days
# Protocol: (§1) First, 5-week-old male C57BL/6 mice were adapted to the animal laboratory environment for 7 days and then divided into 5 groups according to the experimental conditions. Particularly, the experimental groups were divided into the non-treated control group (normal group, Cont), the group induced with muscle atrophy (induction group, IM), the positive control group induced with muscle atrophy and treated with 370 mg/kg of HMB (beta-hydroxy beta-methlybutyrate) (HMB treated group, HMB 370), the group induced with muscle atrophy and treated with low dose (100 mg/kg) of the Panax ginseng berry extract of Example 1 (Panax ginseng berry extract treated group, GBE 100), and the group induced with muscle atrophy and treated with high dose (200 mg/kg) of the Panax ginseng berry extract of Example 1 (Panax ginseng berry extract treated group, GBE 200). Muscle atrophy was induced by immobilization in which a fixation device made of 1.5 mL microfuge tube, clip and velcro tape was applied to one hind leg of a mouse according to ‘Disease models & mechanisms, 8(9), 1059-1069, 2015’. HMB and the Panax ginseng berry extract were dissolved in 0.5% carboxymethyl cellulose (CMC) and administered to the mouse orally once a day for 14 days from the day of the leg immobilization. After 14 days, the gastrocnemius and quadriceps of the hind leg were extracted, weighed, and standardized based on the body weight.
# Whether the Panax ginseng berry extract alleviates the muscle fiber cross-sectional area reduction caused by muscle atrophy was confirmed by the following method. Particularly, the gastrocnemius tissue extracted in Experimental Example 1-1 was fixed with 4% paraformaldehyde, stained with hematoxylin and eosin (H&E), and the muscle fiber cross-sectional area was quantified using image J software.
# [2] = test system: muscle atrophy induced mice; assay: Muscle weight (gastrocnemius, quadriceps) per body weight in immobilization-induced muscle atrophy mice; assay type: in vivo, C57BL/6 mice
# Protocol: as §1
smiles,measurement,setting,value
"CC(C)(O)CC(=O)O [HMB, beta-hydroxy beta-methlybutyrate]","muscle atrophy protection, muscle fiber cross-sectional area",[1]; 370 mg/kg orally,about 13%
same,muscle fiber cross-sectional area decreased compared to the normal group,"[1]; 370 mg/kg orally, induction group about 60%",about 47%
same,reduction in muscle fiber size (FIG. 3),"[1]; gastrocnemius, HMB 370 mg/kg, extract 100 and 200 mg/kg orally",alleviated
same,weight of the quadriceps reduced compared to the normal group,"[2]; 370 mg/kg orally once a day for 14 days, induction group (IM) about 33%",about 17%
same,weight of the gastrocnemius reduced compared to the normal group,"[2]; 370 mg/kg orally once a day for 14 days, induction group (IM) about 40%",about 24%
same,protective ability of muscle atrophy (muscle weight),"[2]; 370 mg/kg orally, 14 days, gastrocnemius and quadriceps",about 16%
